We go through 22 compounds from patent publication US12630528B2, “Amino aryl derivative useful as diacylglycerol acyltransferase 2 inhibitor and use thereof” (LG CHEM, LTD., priority 2019, dated 2026).

pIC50: −log10 of the molar value.

For this assay, the target named is T1, human DGAT2 (Homo sapiens, UniProt Q96PD7).
T1 construct: FLAG (DYKDDDDK); made in house; host or cells: Sf-21 insect cells (BacPAK baculovirus system); membrane fraction used
T1 sequence (Q96PD7 1-388): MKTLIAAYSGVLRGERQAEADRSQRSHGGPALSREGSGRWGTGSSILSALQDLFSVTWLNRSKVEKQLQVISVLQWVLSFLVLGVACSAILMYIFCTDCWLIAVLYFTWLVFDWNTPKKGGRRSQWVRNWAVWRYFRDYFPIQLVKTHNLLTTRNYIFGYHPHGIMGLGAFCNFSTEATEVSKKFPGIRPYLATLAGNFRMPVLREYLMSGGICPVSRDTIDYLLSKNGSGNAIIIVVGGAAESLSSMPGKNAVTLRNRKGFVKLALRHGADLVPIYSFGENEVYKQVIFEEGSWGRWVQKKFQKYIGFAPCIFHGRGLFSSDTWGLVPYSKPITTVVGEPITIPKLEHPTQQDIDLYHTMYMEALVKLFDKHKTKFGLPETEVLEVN
As to the kind of experiment: DGAT2 enzyme activity inhibition, Phospholipid FlashPlate SPA. Format: biochemical. The note with it: recombinant human DGAT2 membrane protein from Sf-21 cells; inhibition of [14C]-TG production; 37° C. The method, boiled down:
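Sf-21 membranes expressing recombinant human DGAT2 (2 μg) preincubated with compound (3 nM–10 μM, 1% DMSO) and 50 μM 1,2 sn-oleoyl glycerol, 20 min at 37 °C, then 1 μM [14C]oleoyl-CoA for 15 min. [14C]-TG counted by SPA; inhibition as % of untreated.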
In the case of `CCOc1ccccc1O[C@@H]1CCCN(c2cncc(Nc3cccc(Oc4ccc(C(=O)O)cc4)n3)n2)C1` [Example 89, (R)-4-((6-((6-(3-(2-ethoxyphenoxy)piperidin-1-yl)pyrazin-2-yl)amino)pyridin-2-yl)oxy)benzoic Acid], the negative logarithm of the IC50 (pIC50) (commonly the IC50 on a negative log10 scale, so that one unit is a factor of ten) is 5.92.

Consider `CCOc1ccccc1O[C@@H]1CCCN(c2cncc(Nc3cc(C(F)(F)F)cc(-c4cccc(CC(C)(C)C(=O)O)c4)n3)n2)C1` [Example 110, (R)-3-(3-(6-((6-(3-(2-ethoxyphenoxy)piperidin-1-yl)pyrazin-2-yl)amino)-4-(trifluoromethyl)pyridin-2-yl)phenyl)-2,2-dimethylpropanoic Acid], for which the pIC50 is 6.77.

With `CCOc1ccccc1O[C@@H]1CCCN(c2cncc(Nc3ccnc(-c4cccc(CC(C)(C)C(=O)O)c4)n3)n2)C1` [Example 170, (R)-3-(3-(4-((6-(3-(2-ethoxyphenoxy)piperidin-1-yl)pyrazin-2-yl)amino)pyrimidin-2-yl)phenyl)-2,2-dimethylpropanoic Acid], the negative-log IC50 (pIC50) is 6.60.

With `CCOc1ccccc1O[C@@H]1CCCN(c2ccnc(Nc3nccc(-c4ccc(CC(C)(C)C(=O)O)cc4)n3)n2)C1` [Example 156, (R)-3-(4-(2-((4-(3-(2-ethoxyphenoxy)piperidin-1-yl)pyrimidin-2-yl)amino)pyrimidin-4-yl)phenyl)-2,2-dimethylpropanoic Acid], the pIC50 is 5.92.

On to `CCOc1cccnc1O[C@@H]1CCCN(c2cncc(Nc3ccnc(-c4ccc(OC(C)(C)C(=O)O)cc4)n3)n2)C1` [Example 179, (R)-2-(4-(4-((6-(3-((3-ethoxypyridin-2-yl)oxy)piperidin-1-yl)pyrazin-2-yl)amino)pyrimidin-2-yl)phenoxy)-2-methylpropanoic Acid], for which the pIC50 is 6.23.

Regarding `CCOc1cccnc1O[C@@H]1CCCN(c2cncc(Nc3nc(-c4cccc(OC(C)(C)C(=O)O)c4)ccc3F)n2)C1` [Example 104, (R)-2-(3-(6-((6-(3-((3-ethoxypyridin-2-yl)oxy)piperidin-1-yl)pyrazin-2-yl)amino)-5-fluoropyridin-2-yl)phenoxy)-2-methylpropanoic Acid], the pIC50 is 6.77.

On to `CCOc1ccccc1O[C@@H]1CCCN(c2cncc(Nc3cc(C(C)(C)COCCOC)no3)n2)C1` [Example 8, (R)—N-(6-(3-(2-ethoxyphenoxy)piperidin-1-yl)pyrazin-2-yl)-3-(1-(2-methoxyethoxy)-2-methylpropan-2-yl)isooxazol-5-amine], for which the pIC50 is 6.26.

Regarding `CCOc1cccnc1O[C@@H]1CCCN(c2cncc(Nc3cccc(-c4ccc(NCC(=O)O)cc4)n3)n2)C1` [Example 74, (R)-(4-(6-((6-(3-((3-ethoxypyridin-2-yl)oxy)piperidin-1-yl)pyrazin-2-yl)amino)pyridin-2-yl)phenyl)glycine], the pIC50 is 6.01.

For the compound `CCOc1cccnc1O[C@@H]1CCCN(c2cncc(Nc3cccc(Oc4ccc(C(C)(C)C(=O)O)cc4)n3)n2)C1` [Example 94, (R)-2-(4-((6-((6-(3-((3-ethoxypyridin-2-yl)oxy)piperidin-1-yl)pyrazin-2-yl)amino)pyridin-2-yl)oxy)phenyl)-2-methylpropanoic Acid], the negative logarithm of the IC50 (pIC50) was 6.64.

Regarding `CCOc1ccccc1O[C@@H]1CCCN(c2cncc(Nc3nccc(-c4cccc(C(=O)O)n4)n3)n2)C1` [Example 139, (R)-6-(2-((6-(3-(2-ethoxyphenoxy)piperidin-1-yl)pyrazin-2-yl)amino)pyrimidin-4-yl)picolinic Acid], the pIC50 is less than 5.00.

For `CCOc1ccccc1O[C@@H]1CCCN(c2cncc(Nc3nc(-c4cccc(CC(C)(C)C(=O)O)c4)cc(C(F)(F)F)n3)n2)C1` [Example 167, (R)-3-(3-(2-((6-(3-(2-ethoxyphenoxy)piperidin-1-yl)pyrazin-2-yl)amino)-6-(trifluoromethyl)pyrimidin-4-yl)phenyl)-2,2-dimethylpropanoic Acid], the pIC50 is 6.17.

As for `CCOc1ccccc1O[C@@H]1CCCN(c2cncc(Nc3nccc(N4CCC[C@H](OCC(=O)O)C4)n3)n2)C1` [Example 131, 2-(((S)-1-(2-((6-((R)-3-(2-ethoxyphenoxy)piperidin-1-yl)pyrazin-2-yl)amino)pyrimidin-4-yl)piperidin-3-yl)oxy)acetic Acid], the pIC50 was less than 5.00.

In the case of `CCOc1ccccc1O[C@@H]1CCCN(c2cncc(Nc3nc4ccc(CCC(=O)O)cc4o3)n2)C1` [Example 18, (R)-3-(2-((6-(3-(2-ethoxyphenoxy)piperidin-1-yl)pyrazin-2-yl)amino)benzo[d]oxazol-6-yl)propanoic Acid], the negative logarithm of the IC50 (pIC50) was 5.96.

With `CCOc1ccccc1O[C@@H]1CCCN(c2cncc(Nc3nc4ccccc4s3)n2)C1` [Example 5, (R)—N-(6-(3-(2-ethoxyphenoxy)piperidin-1-yl)pyrazin-2-yl)benzo[d]thiazol-2-amine], the pIC50 is not above 4.89.

With `CCOc1ccccc1O[C@@H]1CCCN(c2cncc(Nc3ncccc3C(=O)O)n2)C1` [Example 34, (R)-2-((6-(3-(2-ethoxyphenoxy)piperidin-1-yl)pyrazin-2-yl)amino)nicotinic Acid], the pIC50 was less than 5.00.

Consider `CCOc1cccnc1O[C@@H]1CCCN(c2cncc(Nc3nccc(O[C@H]4CC[C@@H](C(=O)O)CC4)n3)n2)C1` [Example 138, (1S,4s)-4-((2-((6-((R)-3-((3-ethoxypyridin-2-yl)oxy)piperidin-1-yl)pyrazin-2-yl)amino)pyrimidin-4-yl)oxy)cyclohexane-1-carboxylic Acid], for which the pIC50 is 6.11.

As to `CCOc1ccccc1O[C@@H]1CCCN(c2cncc(Nc3nc(-c4ccccc4)cs3)n2)C1` [Example 4, (R)—N-(6-(3-(2-ethoxyphenoxy)piperidin-1-yl)pyrazin-2-yl)-4-phenylthiazol-2-amine], the pIC50 was less than 5.00.

Turning to `CCOc1ccccc1O[C@@H]1CCCN(c2cncc(Nc3ccccn3)n2)C1` [Example 31, (R)-6-(3-(2-ethoxyphenoxy)piperidin-1-yl)-N-(pyridin-2-yl)pyrazin-2-amine], the negative logarithm of the IC50 (pIC50) was 6.89.

For the compound `CCOc1cccnc1O[C@@H]1CCCN(c2cncc(Nc3nccc(-c4cccc(C(C)(C)C(=O)O)c4)n3)n2)C1` [Example 142, (R)-2-(3-(2-((6-(3-((3-ethoxypyridin-2-yl)oxy)piperidin-1-yl)pyrazin-2-yl)amino)pyrimidin-4-yl)phenyl)-2-methylpropanoic Acid], the pIC50 is 6.42.

In the case of `CCOc1ccccc1O[C@@H]1CCCN(c2cncc(Nc3nc4ccc(C(C)(C)C(=O)O)cc4o3)n2)C1` [Example 17, (R)-2-(2-((6-(3-(2-ethoxyphenoxy)piperidin-1-yl)pyrazin-2-yl)amino)benzo[d]oxazol-6-yl)-2-methylpropanoic Acid], the pIC50 is 5.89.

For `CCOc1ccccc1O[C@@H]1CCCN(c2cncc(Nc3cc(-c4cccc(C(C)(C)C(=O)O)c4)ccn3)n2)C1` [Example 42, (R)-2-(3-(2-((6-(3-(2-ethoxyphenoxy)piperidin-1-yl)pyrazin-2-yl)amino)pyridin-4-yl)phenyl)-2-methylpropanoic Acid], the pIC50 is 5.43.

On to `CCOc1cccnc1O[C@@H]1CCCN(c2ccnc(Nc3cccc(-c4cccc(CC(C)(C)C(=O)O)c4)n3)n2)C1` [Example 68, (R)-3-(3-(6-((4-(3-((3-ethoxypyridin-2-yl)oxy)piperidin-1-yl)pyrimidin-2-yl)amino)pyridin-2-yl)phenyl)-2,2-dimethylpropanoic Acid], for which the negative logarithm of the IC50 (pIC50) is 5.48.
